Values of other authors, collected in US4461765A (Shionogi & Co., Ltd., priority 1979, dated 1984).
≈ marks a conversion by molar mass, not a printed value.

Conditions: co-trimoxazol SMX:TMP 5:1; oral or intravenous administration

COc1cc(Cc2cnc(N)nc2N)cc(OC)c1OC [TMP, trimethoprim]
minimum inhibition concentration in the blood level: 0.6 µg/mL (≈ 2.07 µM)
